The values that follow come from US8486984B2, “Aminomethyl substituted bicyclic aromatic compounds suitable for treating disorders that respond to modulation of the dopamine D3 receptor” (Abbott GmbH & Co., KG, priority 2004, dated 2013).

SMILES strings stand for the structures. Structures can show the parent of a compound that is named as a salt.

The target of experiment [1] is T1, human dopamine D3 receptors (Homo sapiens, UniProt P35462).
T1 construct: expressed in transfected cells; membranes)
The experiment in a line: Dopamine D3 receptor binding, [125I]-iodosulpride displacement. Conditions: for Ki: membranes from HEK-293 cells stably expressing receptor, 0.1 nM [125I]-iodosulpride, 25° C., 60 minutes; for Ki(D2)*/Ki(D3)*: selectivity, ratio of receptor binding constants D2/D3. As to the method:
(§1) The substance to be tested was either dissolved in methanol/Chremophor® (BASF-AG) or in dimethyl sulfoxide and then diluted with water to the desired concentration.
(§2) Each assay mixture was run in triplicate.
The incubation buffer contained 50 mM tris, 120 mM NaCl, 5 mM KCl, 2 mM CaCl2, 2 mM MgCl2 and 0.1% bovine serum albumin, 10 μM quinolone and 0.1% ascorbic acid (prepared fresh daily). The buffer was adjusted to pH 7.4 with HCl.
(§3) After having been incubated at 25° C. for 60 minutes, the assay mixtures were filtered through a Whatman GF/B glass fiber filter under vacuum using a cell collecting device. The filters were transferred to scintillation viols using a filter transfer system. After 4 ml of Ultima Gold® (Packard) have been added, the samples were shaken for one hour and the radioactivity was then counted in a Beta-Counter (Packard, Tricarb 2000 or 2200CA). The cpm values were converted into dpm using a standard quench series and the program belonging to the instrument.
(§4) The inhibition curves were analyzed by means of iterative nonlinear regression analysis using the Statistical Analysis System (SAS) which is similar to the “LIGAND” program described by Munson and Rodbard.

The target in experiment [2] is T2, human dopamine D2L receptors (long isoform) (Homo sapiens, UniProt P14416).
T2 construct: expressed in transfected cells; membranes)
The experiment in a line: Dopamine D2L receptor binding, [125I] iodospiperone displacement. Conditions: membranes from HEK-293 cells stably expressing receptor; 0.01 nM [125I] iodospiperone; 25° C., 60 minutes; read-out: Ki(D2)*. As to the method:
as §1, §2
The incubation buffer contained 50 mM tris, 120 mM NaCl, 5 mM KCl, 2 mM CaCl2, 2 mM MgCl2 and 0.1% bovine serum albumin. The buffer was adjusted to pH 7.4 with HCl.
as §3, §4

T1 sequence (P35462 whole entry): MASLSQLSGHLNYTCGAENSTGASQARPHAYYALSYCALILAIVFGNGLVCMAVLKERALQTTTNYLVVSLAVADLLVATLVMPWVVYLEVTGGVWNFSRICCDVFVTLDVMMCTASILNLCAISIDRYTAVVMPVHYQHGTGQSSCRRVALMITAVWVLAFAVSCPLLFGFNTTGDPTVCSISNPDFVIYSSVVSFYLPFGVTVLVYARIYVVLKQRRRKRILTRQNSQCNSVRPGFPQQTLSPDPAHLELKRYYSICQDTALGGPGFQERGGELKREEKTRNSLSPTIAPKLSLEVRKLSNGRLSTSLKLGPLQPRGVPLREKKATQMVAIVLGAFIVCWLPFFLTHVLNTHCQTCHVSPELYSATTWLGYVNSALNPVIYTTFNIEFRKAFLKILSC
T2 sequence (P14416 whole entry, canonical isoform): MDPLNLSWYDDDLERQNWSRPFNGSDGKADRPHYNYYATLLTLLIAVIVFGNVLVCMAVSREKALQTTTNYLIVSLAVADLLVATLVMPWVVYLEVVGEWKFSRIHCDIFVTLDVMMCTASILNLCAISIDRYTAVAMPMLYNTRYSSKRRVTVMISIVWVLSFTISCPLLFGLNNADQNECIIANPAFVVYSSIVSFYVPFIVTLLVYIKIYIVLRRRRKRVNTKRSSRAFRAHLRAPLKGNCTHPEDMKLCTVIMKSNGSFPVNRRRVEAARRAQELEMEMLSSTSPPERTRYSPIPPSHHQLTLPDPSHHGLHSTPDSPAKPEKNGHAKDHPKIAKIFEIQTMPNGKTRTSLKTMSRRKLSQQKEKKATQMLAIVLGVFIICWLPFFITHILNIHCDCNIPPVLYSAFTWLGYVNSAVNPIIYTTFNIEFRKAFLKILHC

The Ki is the equilibrium dissociation constant of an inhibitor or competing ligand from its target. On to `CCCNCc1cc2cc(NS(=O)(=O)c3ccc(C(C)C)cc3)ccc2[nH]1` [Example 1, 4-Isopropyl-N-(2-propylaminomethyl-1H-indol-5-yl)-benzenesulfonamide], for which, in experiment [1], the Ki is 5.8 nM and the “Ki(D2)*/Ki(D3)*” value was 39. The Ki in experiment [2] came to 225 nM.
On to `CCCNCC1Cc2cc(NS(=O)(=O)c3ccc(C(C)C)cc3)ccc2N1` (stereo not shown) [Example 2, 4-Isopropyl-N-(2-propylaminomethyl-2,3-dihydro-1H-indol-5-yl)-benzenesulfonamide×HCl], for which, in experiment [1], the Ki was determined as 9.4 nM and the “Ki(D2)*/Ki(D3)*” value came to 55. In addition, in experiment [2], the Ki was 517 nM.
On the same counts, the results for `CCCNCc1cc2cc(NS(=O)(=O)c3ccc(OC(F)(F)F)cc3)ccc2[nH]1` [Example 3, N-(2-Propylaminomethyl-1H-indol-5-yl)-4-trifluoromethoxy-benzenesulfonamide×½ fumaric acid] are 55 nM, 23 and 55 nM.
Turning to `CCCNCC1Cc2cc(NS(=O)(=O)c3ccc(OC(F)(F)F)cc3)ccc2N1` (stereo not shown) [Example 4, N-(2-Propylaminomethyl-2,3-dihydro-1H-indol-5-yl)-4-trifluoromethoxy-benzenesulfonamide×HCl], in experiment [1], the Ki stood at 63.4 nM and the “Ki(D2)*/Ki(D3)*” value came to 120. Also, the inhibition constant Ki in experiment [2] came out at 7640 nM.
Consider `CCCNCC1CCCc2cc(NS(=O)(=O)c3ccc(C(C)C)cc3)ccc21` (stereo not shown) [Example 5, 4-Isopropyl-N-(5-propylaminomethyl-5,6,7,8-tetrahydro-naphthalen-2-yl)-benzenesulfonamide×HCl], for which, in experiment [1], affinity was put at a Ki of 1.72 nM and the “Ki(D2)*/Ki(D3)*” value is on record as 69. Further, in experiment [2], the Ki worked out at 119 nM.
On the same counts, the results for `CCCNCC1Cc2ccc(NS(=O)(=O)c3ccc(C(C)C)cc3)cc2C1` (stereo not shown) [Example 7, 4-Isopropyl-N-(2-propylaminomethyl-indan-5-yl)-benzenesulfonamide] are 7.4 nM, 54 and 398 nM.
`C=CCNCC1Cc2cccc(NS(=O)(=O)c3ccc(C(C)C)cc3)c2C1` (stereo not shown) [Example 9, 4-Isopropyl-N-(2-allylaminomethyl-indan-4-yl)-benzenesulfonamide]: the values for the Ki in experiment [1] and in experiment [2] were 4.3 nM and 232 nM, respectively. For the same compound, the “Ki(D2)*/Ki(D3)*” value in experiment [1] is listed as 54.
As for `CCCNCC1CCc2cc(NS(=O)(=O)c3ccc(C(C)C)cc3)ccc21` (stereo not shown) [Example 10, 4-Isopropyl-N-(1-propylaminomethyl-indan-5-yl)-benzenesulfonamide], the results for the Ki in experiment [1] and in experiment [2] were 1.32 nM and 58.6 nM, respectively. For the same compound, in experiment [1], the “Ki(D2)*/Ki(D3)*” value turned out to be 45.
Turning to `CCCN1CCC2c3ccc(NS(=O)(=O)c4ccc(C(C)C)cc4)cc3NC2C1` (stereo not drawn) [Example 12, 4-Isopropyl-N-(2-propyl-2,3,4,4a,9,9a-hexahydro-1H-beta-carbolin-7-yl)-benzenesulfonamide], in experiment [1], affinity was put at a Ki of 5.3 nM and the “Ki(D2)*/Ki(D3)*” value is 26. In addition, in experiment [2], the Ki was found to be 137 nM.
Turning to `CCCN1CC2CCc3c(cc(Cl)c(NS(=O)(=O)c4ccc(C(C)C)cc4)c3Cl)C2C1.Cl` (stereo not shown) [Example 13, N-(6,8-Dichloro-2-propyl-2,3,3a,4,5,9b-hexahydro-1H-benzo[e]isoindol-7-yl)-4-isopropyl-benzenesulfonamide, hydrochloride], in experiment [1], the Ki is 10.1 nM and the “Ki(D2)*/Ki(D3)*” value is 5.
On the same counts, the results for `CCCN1CC2CCc3cc(NS(=O)(=O)c4ccc(C(C)C)cc4)ccc3C2C1.Cl` (stereo not shown) [Example 14, 4-Isopropyl-N-(2-propyl-2,3,3a,4,5,9b-hexahydro-1H-benzo[e]isoindol-7-yl)-benzenesulfonamide, hydrochloride] are 0.5 nM and 28.
As for `CCCN1CC2CCc3cc(NS(=O)(=O)c4ccc(C(C)C(F)(F)F)cc4)ccc3C2C1.Cl` (stereo not shown) [Example 15, N-(2-Propyl-2,3,3a,4,5,9b-hexahydro-1H-benzo[e]isoindol-7-yl)-4-(2,2,2-trifluoro-1-methylethyl)-benzenesulfonamide, hydrochloride], in experiment [1], the Ki was 1.8 nM and the “Ki(D2)*/Ki(D3)*” value was found to be 36.
The corresponding values for `CCCN1CC2CCc3cc(NS(=O)(=O)c4ccc(OC(F)(F)F)cc4)ccc3C2C1.Cl` (stereo not shown) [Example 16, N-(2-Propyl-2,3,3a,4,5,9b-hexahydro-1H-benzo[e]isoindol-7-yl)-4-trifluoromethoxy-benzenesulfonamide hydrochloride] are 3.6 nM and 66.
On the same counts, the results for `CCCN1CC2CCc3cc(NS(=O)(=O)c4ccc(OC(F)F)cc4)ccc3C2C1.Cl` (stereo not shown) [Example 17, 4-Difluoromethoxy-N-(2-propyl-2,3,3a,4,5,9b-hexahydro-1H-benzo[e]isoindol-7-yl)-benzenesulfonamide, hydrochloride] are 3.3 nM and 19.
